Consider 3 compounds from patent US10835533B2, “1 -((3S,4R)-4-(3-fluorophenyl)-1-(2-methoxyethyl)pyrrolidin-3-yl)-3-(4-methyl-3-(2-methylpyrimidin-5-yl)-1-phenyl-1H-pyrazol-5-yl)urea as a TrkA kinase inhibitor” (Array BioPharma Inc., priority 2014, dated 2020).

Marks after values point to notes of the source that are not given here.

The nature of data set [1]: Liver microsomal clearance, dog. The class given is in vitro ADME. As to conditions: pH 7.4; Dog liver microsomes; 1 mg/mL; 20 minutes. How it is done:
(§1) The predicted hepatic clearance (CLh) value was calculated by scaling the in vitro half-life (t1/2) for stability of the compound in liver microsomes (1 mg/mL; 20 minutes) using the physical and physiological scaling factors used to predict intrinsic clearance (CLint) and hepatic clearance (CLhep) listed in Table 2 and employed in the following equations: […]
(§2) where D is the amount of cytochrome P450-related protein per mass of liver, W is the average mass of liver present per weight of animal, C is the liver microsomal concentration, and Q is the species-dependent hepatic blood flow.
(§3) A 100 mM potassium phosphate assay buffer solution (KPB) was prepared as follows. Both KH2PO4 and K2HPO4 were dissolved separately in reagent grade water resulting in final concentrations 100 mM. A 75:25 mixture v/v of K2HPO4:KH2PO4 was prepared and the pH of the solution was adjusted to 7.4 using diluted HCl or diluted NaOH solutions. Stock solutions of Compound 1, Compound 2 and Compound 3 were prepared at 10 mM (active compound) in DMSO. The stock solution was diluted immediately before use to 2.5 μM using the KPB solution to create the working standard. All test compounds were completely soluble in DMSO by visual inspection at room temperature. The NADPH-regenerating solution (NRS) was prepared on the day of analysis by diluting one volume of 17 mg/mL NADP^+ with one volume of 78 mg/mL glucose-6-phosphate (both prepared in KPB, pH 7.4) and 7.9 volumes of 20 mM MgCl2. The final concentrations of NADP^+ and glucose-6-phosphate were 1.7 mg/mL and 7.8 mg/mL, respectively. […]
(§4) All calculations were performed using BioAssay Enterprise. The mean peak area ratios were calculated by averaging the peak area ratios (n=2) of Compound 1, Compound 2, Compound 3, and the internal standard for each sample. Percent remaining was calculated by determining the ratio of the peak area ratio at each time point to the peak area ratio of the time-zero samples. The rate of loss of test compound (km) was determined by linear regression of −ln(f(t)) versus time. […] The t1/2 was determined dividing ln(2) by km. […]
In general terms: Liver microsomes are a subcellular fraction often used to study metabolism.

Data set [2] in a line: Liver microsomal clearance, monkey. The class given is in vitro ADME. As to conditions: pH 7.4; Monkey liver microsomes; 1 mg/mL; 20 minutes. As to the method:
as §1, §2, §3, §4

Data set [3] in a line: Predicted human IV clearance (microsomal CLh/correction factor). As to conditions: for in vivo/in vitro correction factor: pre-clinical mean correction factor for all species tested; for IV clearance (predicted): predicted from human microsomal CLh and mean pre-clinical correction factor. As to the method:
In Table 1, the predicted human IV clearance values were calculated from compound concentration-versus-time data in plasma collected from pre-clinical species (mouse, rat, dog and monkey) following 1 mg/kg intravenous (IV) doses. Concentrations of compound in plasma were measured by LC-MS (liquid chromatography-mass spectrometry). AUCinf values (Area under the plasma concentration-time curve for a dosing interval from time 0 extrapolated to infinity) for individual Cp/t curves (concentration of the drug in plasma at any time t) were determined using linear-trapezoidal integration and first order extrapolation from terminal points of the Cp/t curves, and clearance (CL) was calculated using Dose/AUCinf.
The in vivo/in vitro correction factor was then determined by dividing the […]. The arithmetic mean of the pre-clinical correction factors for each compound was used to predict the human IV clearance from the measured human microsomal CLh (CLh/correction factor).

The nature of data set [4]: Liver microsomal clearance, rat. In kind it is in vitro ADME. Conditions: pH 7.4; Rat liver microsomes; 1 mg/mL; 20 minutes. As to the method:
as §1, §2, §3, §4

Turning to `COCCN1C[C@@H](NC(=O)Nc2c(C)c(-c3cnn(C)c3)nn2-c2ccccc2)[C@H](c2ccc(F)cc2)C1` [Compound 3, 1-(1′,4-dimethyl-1-phenyl-1H,1′H-[3,4′-bipyrazol]-5-yl)-3-((3S,4R)-4-(4-fluorophenyl)-1-(2-methoxyethyl)pyrrolidin-3-yl)urea], the CLhep predicted at 1 μM in data set [1] is 23 mL/min/kg; in data set [2] it was 32 mL/min/kg; in data set [4], 23 mL/min/kg. In data set [3], the “in vivo/in vitro correction factor” value is 0.96 ***. Also, in data set [3], the “IV clearance (predicted)” value is 10 (predicted)** mL/min/kg.

As to `COCCN1C[C@@H](NC(=O)Nc2c(C)c(-c3cnc(C)nc3)nn2-c2ccccc2)[C@H](c2cccc(F)c2)C1` [Compound 1, 1-((3S,4R)-4-(3-fluorophenyl)-1-(2-methoxyethyl)pyrrolidin-3-yl)-3-(4-methyl-3-(2-methylpyrimidin-5-yl)-1-phenyl-1H-pyrazol-5-yl)urea], the CLhep predicted at 1 μM in data set [1] was 24 mL/min/kg; in data set [2] it was 33 mL/min/kg; in data set [4], 22 mL/min/kg. Also, in data set [3], the “in vivo/in vitro correction factor” value is recorded as 2.09 ***. For the same compound, the “IV clearance (predicted)” value in data set [3] is 5 (predicted)** mL/min/kg.

For the compound `COCCN1C[C@@H](NC(=O)Nc2c(C)c(-c3cnc(C)nc3)nn2-c2ccccc2)[C@H](c2ccc(F)c(F)c2)C1` [Compound 2, 1-((3S,4R)-4-(3,4-difluorophenyl)-1-(2-methoxyethyl)pyrrolidin-3-yl)-3-(4-methyl-3-(2-methylpyrimidin-5-yl)-1-phenyl-1H-pyrazol-5-yl)urea], the results for the CLhep predicted at 1 μM in data set [1], in data set [2] and in data set [4] were 26 mL/min/kg, 38 mL/min/kg and 22 mL/min/kg, respectively. Moreover, in data set [3], the “in vivo/in vitro correction factor” value is on record as 1.32 ***. For the same compound, in data set [3], the “IV clearance (predicted)” value is reported as 12 (predicted)** mL/min/kg.
